# In ChEMBL document CHEMBL5584341, “Discovery of Potent, Specific, and Orally Available NLRP3 Inflammasome Inhibitors Based on Pyridazine Scaffolds for the Treatment of Septic Shock and Peritonitis” (J Med Chem, 2024):
# Activity calls are given as the source filed them. The calls are words filed in the database; no cut-off is given here.
# Assays:
# [1] = biological target: NACHT, LRR and PYD domains-containing protein 3 (Mus musculus) (UniProt Q8R4B8); assay: Inhibition of NLRP3 inflammasome activation in mouse BMDMs assessed as effect on NLRP3 expression at 2 to 31.25 nM pretreated with LPS for 3 hrs followed by compound addition for 40 mins; type: cell-based; conditions: BMDM, dose 2-31.25 nM
# Chain of NACHT, LRR and PYD domains-containing protein 3 (Mus musculus) (Q8R4B8 whole entry, the tested form may be a part): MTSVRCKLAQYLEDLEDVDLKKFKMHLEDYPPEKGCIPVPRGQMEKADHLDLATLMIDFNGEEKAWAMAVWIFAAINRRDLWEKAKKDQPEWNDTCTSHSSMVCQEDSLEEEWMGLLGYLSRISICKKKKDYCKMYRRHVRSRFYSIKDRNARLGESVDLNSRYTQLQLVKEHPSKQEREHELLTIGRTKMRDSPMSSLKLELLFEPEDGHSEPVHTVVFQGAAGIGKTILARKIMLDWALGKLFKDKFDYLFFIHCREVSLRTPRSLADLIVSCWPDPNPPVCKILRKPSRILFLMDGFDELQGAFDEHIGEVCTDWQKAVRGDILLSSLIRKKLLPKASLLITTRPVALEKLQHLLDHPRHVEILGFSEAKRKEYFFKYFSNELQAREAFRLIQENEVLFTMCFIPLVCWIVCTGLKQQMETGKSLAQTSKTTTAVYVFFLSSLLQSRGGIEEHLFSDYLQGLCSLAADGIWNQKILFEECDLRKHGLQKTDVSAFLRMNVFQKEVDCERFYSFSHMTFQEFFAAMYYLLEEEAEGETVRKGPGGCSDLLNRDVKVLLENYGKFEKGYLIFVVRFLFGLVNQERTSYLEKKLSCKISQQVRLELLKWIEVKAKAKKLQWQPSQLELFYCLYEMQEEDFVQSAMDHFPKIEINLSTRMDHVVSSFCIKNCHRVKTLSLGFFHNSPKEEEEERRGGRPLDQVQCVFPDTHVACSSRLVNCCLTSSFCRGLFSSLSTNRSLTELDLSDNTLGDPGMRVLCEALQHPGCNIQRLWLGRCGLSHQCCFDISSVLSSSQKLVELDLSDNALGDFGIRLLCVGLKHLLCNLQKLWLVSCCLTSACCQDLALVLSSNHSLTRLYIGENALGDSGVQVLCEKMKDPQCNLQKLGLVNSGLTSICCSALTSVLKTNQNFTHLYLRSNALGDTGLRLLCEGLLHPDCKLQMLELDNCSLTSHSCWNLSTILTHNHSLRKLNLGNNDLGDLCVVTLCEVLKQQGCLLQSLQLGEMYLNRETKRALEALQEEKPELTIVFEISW
# [2] = biological target: NACHT, LRR and PYD domains-containing protein 3 (Mus musculus) (UniProt Q8R4B8); assay: Inhibition of NLRP3 inflammasome activation in LPS stimulated mouse BMDMs assessed as reduction in IL-1beta release at 2 to 31.25 nM pretreated with LPS for 3 hrs followed by compound addition for 40 mins prior to ATP stimulation for 1 hr by ELISA; type: cell-based; conditions: BMDM, dose 2-31.25 nM, time 100.0 min
# [3] = biological target: NACHT, LRR and PYD domains-containing protein 3 (Mus musculus, UniProt Q8R4B8); assay: Inhibition of NLRP3 inflammasome activation in LPS/nigericin stimulated mouse BMDMs assessed as reduction in IL-1beta release pretreated with LPS for 3 hrs followed by compound addition for 40 mins prior to nigericin stimulation for 40 mins by ELISA; type: cell-based, BMDM
# Chain of NACHT, LRR and PYD domains-containing protein 3 (Q8R4B8 whole entry, the tested form may be a part): as above
# Cytochrome P450 2C19 = Cytochrome P450 2C19 (Homo sapiens, UniProt P33261); assay: Inhibition of human CYP2C19 upto 10 uM relative to control; type: ADME
# Chain of Cytochrome P450 2C19 (P33261 whole entry): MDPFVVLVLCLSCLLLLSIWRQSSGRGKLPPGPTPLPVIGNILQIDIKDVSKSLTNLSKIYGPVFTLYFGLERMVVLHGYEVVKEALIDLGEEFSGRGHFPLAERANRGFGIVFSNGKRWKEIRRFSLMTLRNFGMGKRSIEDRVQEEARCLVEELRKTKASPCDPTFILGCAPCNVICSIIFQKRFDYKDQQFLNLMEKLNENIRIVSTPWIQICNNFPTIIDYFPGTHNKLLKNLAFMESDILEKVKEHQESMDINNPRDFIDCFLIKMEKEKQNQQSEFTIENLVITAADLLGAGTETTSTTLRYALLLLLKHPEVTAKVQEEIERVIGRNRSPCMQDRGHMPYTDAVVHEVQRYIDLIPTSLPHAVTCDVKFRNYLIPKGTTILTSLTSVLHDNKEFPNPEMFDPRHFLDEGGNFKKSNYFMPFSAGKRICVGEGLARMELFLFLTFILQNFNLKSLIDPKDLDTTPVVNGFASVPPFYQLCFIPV
# THP-1 [4] = assay: Inhibition of nigericin induced ASC specks formation in PMA differentiated human THP-1 cells at 5 to 80 nM pretreated with LPS for 3 hrs followed by compound addition for 40 mins prior to nigericin stimulation for 40 mins by Western blotting analysis; type: functional, cell-based; conditions: dose 5-80 nM, time 80.0 min
# [5] = biological target: NLR family CARD domain-containing protein 4 (Mus musculus) (UniProt Q3UP24); assay: Inhibition of flagellin stimulated NLRC4 inflammasome activation in mouse BMDMs assessed as reduction in IL-1beta secretion pretreated with LPS for 3 hrs followed by compound addition for 40 mins prior to flagellin stimulation for 6 hrs by Western blotting analysis; type: cell-based; conditions: BMDM, time 400.0 min
# Chain of NLR family CARD domain-containing protein 4 (Mus musculus) (Q3UP24 whole entry, the tested form may be a part): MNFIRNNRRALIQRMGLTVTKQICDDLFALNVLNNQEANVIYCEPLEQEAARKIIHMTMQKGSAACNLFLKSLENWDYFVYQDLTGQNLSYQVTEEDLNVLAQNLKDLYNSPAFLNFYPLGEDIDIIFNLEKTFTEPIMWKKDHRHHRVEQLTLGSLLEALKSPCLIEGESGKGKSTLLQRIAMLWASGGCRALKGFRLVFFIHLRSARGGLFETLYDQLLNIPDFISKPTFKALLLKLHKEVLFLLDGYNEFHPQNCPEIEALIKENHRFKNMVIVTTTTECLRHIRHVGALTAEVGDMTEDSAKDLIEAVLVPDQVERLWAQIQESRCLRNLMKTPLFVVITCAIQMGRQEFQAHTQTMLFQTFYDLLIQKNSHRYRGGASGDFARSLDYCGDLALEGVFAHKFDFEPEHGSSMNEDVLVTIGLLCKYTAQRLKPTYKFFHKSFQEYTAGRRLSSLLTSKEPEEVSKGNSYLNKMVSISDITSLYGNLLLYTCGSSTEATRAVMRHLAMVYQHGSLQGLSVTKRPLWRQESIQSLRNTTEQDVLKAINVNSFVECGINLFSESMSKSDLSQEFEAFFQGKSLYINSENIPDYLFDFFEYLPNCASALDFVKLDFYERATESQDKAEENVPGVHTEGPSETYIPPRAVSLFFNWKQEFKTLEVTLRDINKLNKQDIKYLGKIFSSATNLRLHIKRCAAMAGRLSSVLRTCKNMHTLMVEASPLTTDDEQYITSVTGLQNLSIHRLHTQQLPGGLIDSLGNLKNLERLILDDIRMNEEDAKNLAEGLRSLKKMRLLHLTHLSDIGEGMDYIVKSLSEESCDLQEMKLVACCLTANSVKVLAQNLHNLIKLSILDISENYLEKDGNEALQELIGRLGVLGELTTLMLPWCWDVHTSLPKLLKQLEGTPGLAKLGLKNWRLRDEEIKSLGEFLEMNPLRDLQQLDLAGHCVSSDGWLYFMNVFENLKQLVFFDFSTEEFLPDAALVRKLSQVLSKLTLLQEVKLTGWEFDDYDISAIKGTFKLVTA
# [6] = Tmax in BALB/c mouse at 5 mg/kg, iv measured upto 24 hrs by LC-MS/MS analysis; type: ADME, organism-based; conditions: in vivo
# THP-1 [7] = assay: Inhibition of nigericin induced ASC oligomerization in PMA differentiated human THP-1 cells at 5 to 80 nM pretreated with LPS for 3 hrs followed by compound addition for 40 mins prior to nigericin stimulation for 40 mins by gel electrophoresis analysis; type: functional, cell-based; conditions: dose 5-80 nM, time 80.0 min
structure (smiles),measurement,setting,value
OCCN1CCC[C@@H](Nc2nnc(-c3ccc4occc4c3O)c3c2C2CCC3CC2)C1,inhibition,[1],inactive
same,inhibition,[2],Active
same,IC50,[3],15.3 nM
same,inhibition (INH),Cytochrome P450 2C19,Not Active
same,inhibition,THP-1 [4],Active
same,inhibition,[5],inactive
same,Tmax,[6],4.98 min
same,inhibition,THP-1 [7],Active
